Key:
Assay in all cases: relative viability (nuclei count vs DMSO), 5 days (fraction); higher = more cells survive
[1] = compound: C1=CC2=NC=CN=C2C=C1/C=C/3\C(=O)NC(=O)S3 + CS(=O)(=O)N1CCN(Cc2cc3nc(-c4cccc5[nH]ncc45)nc(N4CCOCC4)c3s2)CC1 [Pictilisib] (partner 1 µM)
Summary of the method: (§1)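 Relative viability divides the nuclei count in treated wells by that in vehicle wells. Lung cancer cell lines were seeded in 1536-well plates, dosed by pin tool the next day, and fixed and stained after 5 days in one step with final 0.05% Triton X-100, 1% formaldehyde and 1 ug/ml Hoechst. Dosing was a single drug or a fixed anchor-drug dose plus five library-drug doses (not always all listed) in √10 steps, and values are medians of duplicate plates imaged at 4×.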

[2] = compound: CCN1CCN(c2ccc(Nc3cc(N(C)C(=O)Nc4c(Cl)c(OC)cc(OC)c4Cl)ncn3)cc2)CC1 [BGJ398] + N=C(N)NC(=N)NCCc1ccccc1 [Phenformin] (partner 250 µM)
Summary of the method: as §1

[3] = compound: C1=CC2=NC=CN=C2C=C1/C=C/3\C(=O)NC(=O)S3 + NC(=O)Nc1cc(-c2cccc(F)c2)sc1C(=O)N[C@H]1CCCNC1 [AZD7762] (partner 0.2 µM)
Summary of the method: as §1

[4] = compound: C1=CC2=NC=CN=C2C=C1/C=C/3\C(=O)NC(=O)S3 + CC(=O)Nc1cccc(-n2c(=O)n(C3CC3)c(=O)c3c(Nc4ccc(I)cc4F)n(C)c(=O)c(C)c32)c1 [Trametinib] (partner 0.02 µM)
Summary of the method: as §1

Row | Cell Line | relative viability ([1]; first compound 0.02 µM) | relative viability ([1]; first compound 0.06325 µM) | relative viability ([1]; first compound 0.2 µM) | relative viability ([1]; first compound 0.6325 µM) | relative viability ([1]; first compound 2 µM) | relative viability ([2]; first compound 0.01 µM) | relative viability ([2]; first compound 0.03162 µM) | relative viability ([2]; first compound 0.1 µM) | relative viability ([2]; first compound 0.3162 µM) | relative viability ([2]; first compound 1 µM) | relative viability ([3]; first compound 0.02 µM) | relative viability ([3]; first compound 0.2 µM) | relative viability ([3]; first compound 0.6325 µM) | relative viability ([3]; first compound 2 µM) | relative viability ([4]; first compound 0.02 µM) | relative viability ([4]; first compound 0.2 µM) | relative viability ([4]; first compound 0.6325 µM) | relative viability ([4]; first compound 2 µM) | relative viability ([3]; first compound 0.06325 µM) | relative viability ([4]; first compound 0.06325 µM)
1 | NCI-H1792 | 0.26 | 0.16 | 0.341 | 0.214 | 0.296 | 0.288 | 0.233 | 0.259 | 0.315 | 0.262 | 0.675 | 0.642 | 0.667 | 0.348 | 0.363 | 0.542 | 0.386 | 0.248 | – | –
2 | ChaGo-K-1 | 0.886 | 1.26 | 1.07 | 0.665 | 0.621 | 0.488 | 0.47 | 0.525 | 0.487 | 0.458 | 0.799 | 0.905 | 0.791 | 0.83 | 0.9 | 0.888 | 0.887 | 0.872 | 0.821 | 0.785
3 | LOU-NH91 | 0.528 | 0.535 | 0.535 | 0.498 | 0.484 | 0.676 | – | 0.712 | 0.455 | 0.474 | 0.74 | 0.797 | 0.733 | 0.55 | 0.791 | 0.799 | 0.792 | 0.726 | 0.755 | 0.808
4 | NCI-H2405 | 0.488 | 0.504 | 0.428 | 0.433 | 0.182 | 0.394 | 0.432 | 0.377 | 0.394 | 0.371 | 0.824 | 0.762 | 0.722 | 0.428 | 0.622 | 0.648 | 0.623 | 0.399 | 0.924 | 0.765
5 | LCLC-97TM1 | 0.186 | 0.185 | 0.21 | 0.141 | 0.178 | 0.393 | 0.446 | 0.442 | 0.429 | 0.44 | 0.21 | 0.253 | 0.269 | 0.113 | 0.197 | 0.222 | 0.232 | 0.167 | 0.219 | 0.193
6 | NCI-H596 | 0.465 | 0.384 | 0.394 | 0.419 | 0.377 | 0.597 | 0.724 | 0.842 | 0.722 | 0.66 | 1.15 | 1.19 | 0.907 | 0.956 | 0.764 | 0.794 | 0.887 | 0.722 | 1.14 | 0.771
7 | NCI-H727 | 0.432 | 0.394 | 0.367 | 0.328 | 0.198 | 0.668 | 0.521 | 0.635 | 0.568 | 0.516 | 0.597 | 0.737 | 0.678 | 0.337 | 0.386 | 0.407 | 0.397 | 0.29 | 0.63 | 0.369
8 | H3255 | 0.537 | 0.55 | 0.464 | 0.503 | 0.426 | 0.338 | – | 0.371 | 0.231 | 0.35 | 0.716 | 0.903 | 0.901 | 0.825 | 0.607 | 0.643 | 0.6 | 0.699 | 0.819 | 0.698
9 | NCI-H1437 | 0.441 | 0.482 | 0.434 | 0.347 | 0.317 | 0.265 | 0.34 | 0.314 | 0.268 | 0.281 | 1.18 | 1.09 | 1.09 | 0.609 | 0.475 | 0.534 | 0.45 | 0.329 | 1.11 | 0.448
10 | LU99A | 0.33 | 0.365 | 0.317 | 0.341 | 0.245 | 0.937 | 0.934 | 0.925 | 0.765 | 0.765 | 0.392 | 0.369 | 0.36 | 0.223 | 0.564 | 0.607 | 0.587 | 0.427 | 0.352 | 0.47
11 | HCC-827 | 1.13 | 0.938 | 0.996 | 0.845 | 0.969 | 0.323 | – | 0.432 | 0.317 | 0.413 | 0.218 | 0.261 | 0.265 | 0.114 | 0.611 | 0.505 | 0.456 | 0.544 | 0.155 | 0.35
12 | LK-2 | 0.678 | 0.587 | 0.596 | 0.497 | 0.392 | 0.268 | 0.295 | 0.255 | 0.18 | 0.271 | 0.43 | 0.466 | 0.4 | 0.14 | 0.769 | 0.847 | 0.828 | 0.567 | 0.538 | 0.813
13 | HCC-366 | 0.151 | 0.0838 | 0.14 | 0.11 | 0.117 | 0.632 | 0.672 | 0.6 | 0.613 | 0.673 | 0.276 | 0.247 | 0.235 | 0.303 | 0.307 | 0.39 | 0.311 | 0.309 | – | –
14 | BEN | 0.54 | 0.622 | 0.613 | 0.496 | 0.556 | 0.263 | 0.284 | 0.284 | 0.261 | 0.241 | 0.727 | 0.842 | 0.627 | 0.497 | 1.06 | 0.986 | 1.05 | 0.856 | 0.701 | 0.885
15 | NCI-H23 | 0.396 | 0.688 | 0.557 | 0.517 | 0.504 | 0.688 | 0.904 | 0.811 | 0.761 | 0.756 | 0.227 | 0.227 | 0.182 | 0.21 | 0.346 | 0.361 | 0.394 | 0.223 | 0.242 | 0.489
16 | NCI-H1395 | 0.669 | 0.596 | 0.786 | 0.564 | 0.512 | 0.436 | 0.433 | 0.368 | 0.393 | 0.373 | 0.392 | 0.424 | 0.372 | 0.411 | 1.01 | 1.06 | 0.978 | 1.02 | 0.393 | 0.974
17 | 201T | 0.606 | 0.799 | 0.712 | 0.666 | 0.573 | 0.45 | 0.444 | 0.457 | 0.382 | 0.386 | 0.651 | 0.625 | 0.609 | 0.576 | 0.669 | 0.718 | 0.736 | 0.713 | 0.531 | 0.726

From the supplement of paper PMC10307832
